In patent US20070167478A1, “Biomarkers for sensitivity of proliferative diseases to mtor inhibitors” (priority 2003, published 2007) one finds IC50 data, which are given here for one compound.

What all share (type): cell-based
One test has as its system MCF7. Briefly: Antiproliferative assay, methylene blue staining, MCF7. Conditions: MCF7 human tumor cell line, 4 days incubation. The method, then:
(§1) Human tumor cell lines, e.g. the 40-O-(2-hydroxyethyl) rapamycin-sensitive MCF7, BT549 or LNCap lines (IC50 in sub nM range) versus the comparative 40-O-(2-hydroxyethyl) rapamycin-resistant PC3M line (IC50 in the >100 nM range), as well as cell lines with moderate rapamcyin-sensitivity (IC50 in the 1 nM-100 nM range) such as DU145, HCC1937 and MDA-MB231, are added to 96-well plates (500 to 5000 cells/well in 100 μl medium) and incubated for 24 hr. Subsequently, a dilution series of an mTOR inhibitor, e.g. a compound of formula A, e.g. 40-O-(2-hydroxyethyl) rapamycin is made in separate wells and the dilutions are added to the wells. The cells are then re-incubated for 4 days. Methylene blue staining is performed on day 5 and the amount of bound dye (proportional to the number of surviving cells that bind the dye) determined. IC50s are subsequently determined using Softmax 1.2.0 software.

In the next test the test system is BT549. Briefly: Antiproliferative assay, methylene blue staining, BT549. The following applies: BT549 human tumor cell line, 4 days incubation. The method, then:
as §1

The test system of another test is LNCap. Briefly: Antiproliferative assay, methylene blue staining, LNCap. Conditions: LNCap human tumor cell line, 4 days incubation. The method, then: as §1
In another test the test system is PC3M. Briefly: Antiproliferative assay, methylene blue staining, PC3M. The following applies: PC3M human tumor cell line, 4 days incubation. On the procedure:
as §1

pIC50: −log10 of the molar value.

Take `CO[C@H]1C[C@@H]2CC[C@@H](C)[C@@](O)(O2)C(=O)C(=O)N2CCCC[C@H]2C(=O)O[C@H]([C@H](C)C[C@@H]2CC[C@@H](OCCO)[C@H](OC)C2)CC(=O)[C@H](C)/C=C(\C)[C@@H](O)[C@@H](OC)C(=O)[C@H](C)C[C@H](C)/C=C/C=C/C=C/1C` [40-O-(2-hydroxyethyl) rapamycin]: the IC50 entry in the test on MCF7, in the test on BT549 and in the test with LNCap was “sub nM” throughout. The compound also gave a pIC50 in the test with PC3M of less than 7.00.
